Values quoted from earlier work, collected in PMC11891579, “Fluorescent PyrAte-(S)-citalopram conjugates enable imaging of the serotonin transporter in living tissue” (Chemical Science, 2025).

System: organic cation transporter 3 (OCT3)
Parameters: method as in PMID 34884800
Settings: cited from earlier work

CN(C)CCC[C@@]1(c2ccc(F)cc2)OCc2cc(C#N)ccc21 [(S)-citalopram]
affinity towards OCT3: does not display affinity towards OCT3
